Entries after “also recorded” stand apart in the source; their conditions may differ.
Tests used:
CHO [1] = assay: Shake flask experiment, buffer screen (Example 2); format: cell-based, Chinese Hamster; conditions: shake flasks; for cell growth / buffer performance: 11 d, incubator 1
Description: The selection of the buffer systems (cell-free) is now operated with cells. The criterion for the choice of the buffer systems used in this experiment is an acceptable osmolality and good buffer characteristics during the introduction of gas into the shake flask incubator. […] The objective is to determine the best buffer medium, in relation to the growth performance of the cell, as a basis for a subsequent fermentation in the bioreactor. The preparation is carried out analytically as precisely as possible. The pH values are adjusted by BGA comparison. Lower buffer concentrations are added by means of stock solutions. After manufacture, sterile filtration is carried out. As a safety measure the experiments are carried out with n=2. To achieve two different gas supply variants, the experiments are split between two different incubators. A summary can be found in the experiment plan. […] The analysis on d0 (day 0) was carried out immediately after the seeding under the LAF box, i.e. without any previous effect of the CO2 atmosphere of the incubator.

CHO [2] = assay: Fermentation verification buffer system (Example 4); format: cell-based, Chinese Hamster; conditions: CO2-regulated bioreactors, NaHCO3 0-16 mM, FIG. 6
Excerpt: In six CO2-regulated bioreactors the buffer systems TES and Sod-β are used with different concentrations of NaHCO3, in order to determine the optimum concentration of NaHCO3 in the medium. […] Medium B, NaHCO3-free, MOPS-free+weighed amount/stock solution buffer substance(s) • Feeding: […] NaOH (1.2M) (no CO2) • pCO2: day 0-3 5%, day 3-11 3% The buffer systems used with different concentrations of NaHCO3 are shown in Table 6. [table]

CHO [3] = conditions: Na salt added on day 3, FIG. 8
Description: In 10 250 ml shake flasks, cells are tested for their acid tolerance with the addition of sodium salts. The salt solutions are selected such that the quantities of acids determined by titration beforehand are present in 1.5 ml of solution for a pH shift from 7.1 to 6.7. On day 3 these 1.5 ml of the different salt solutions are added to the shake flasks to simulate a pH shift.

CHO [4] = conditions: acid added on day 3, FIG. 9B
Description: Different acids are added to three CO2-regulated bioreactors for a pH shift from 6.95 to 6.8 on day 3. The concentrations of the acid solutions are chosen such that the quantities of substance required, which have been determined beforehand in a titration, are present in 50 ml of solution.
The test set-up is described below: • Platform: Bioreactor/Multifermenter • Method: Fed Batch • Cell: CHO • Seeding density: 3×10^5 vc/mL • Start volume: 1.8 L • Run time: 11 days • Medium: Medium B, NaHCO3-free, MOPS-free+Sod-β (25 mM) • Feeding: Feed I continuously from day 2 • Temperature: 37° C. • pO2: 60% • Speed: 160 rpm • pH: day 0-3 7.00±0.05, day 3-11 6.80±0.05 • pH regulation: NaOH (1.2M) (no CO2)

CHO [5] = assay: Bioreactor fermentation, pCO2 regulated/unregulated and buffer systems (Example 3); format: cell-based, Chinese Hamster
Description: The fermentation using the multifermenter is again preceded by an optimising test using SDR. In this preliminary test, in accordance with Example 1, different NaHCO3 concentrations are tested in conjunction with the media Sod-β/H and TES/K. In the experiment, in addition to the evaluation by the drop in pO2, an identically covered well plate is used having pH sensors. […] (The data from the preliminary test are not shown here.) Fermentation takes place in two multifermenters (corresponding to twelve individual fermenters) with different media combinations. The procedure and handling are based on the sections described under the headings Equipment, Methods and Operating steps. [table] The CO2 profile shown above applies to the regulated bioreactor FS 33.1. in the remaining fermenters, after the seeding (d0), for a specific length of time at a specific control magnitude, CO2(gas) is added in order to provide the cells with a minimum of dissolved CO2. […] In the context of determining cell density it was jointly decided that no further manual interventions are required for supplying CO2 gas. [table]

Row | Structure (SMILES) | cell growth / buffer performance (CHO [1]) | standardised product concentration (CHO [4]) | also measured
1 | O.O.O.O.O.O=P([O-])([O-])OC(CO)CO.[Na+].[Na+] [Sod-β, sodium-β-glycerophosphate-pentahydrate] | best buffer substances |  | standardised product concentration with different NaHCO3 concentrations (CHO [2]): not dependent on the amount of NaHCO3 in the medium; also recorded: productivity of the cells is independent of the concentration of NaHCO3
2 | CC(=O)[O-].[Na+] [sodium acetate] |  |  | toxic effect on cell growth (CHO [3]): toxic effect
3 | O=P(O)(O)O [phosphoric acid] |  | same product concentrations | 
4 | NC(CO)(CO)CO [Trizma base] | runs poorly |  | toxicity (CHO [1]; any concentration, pH stable): may be some toxicity
5 | O=S(=O)(O)O [sulphuric acid] |  | same product concentrations | 
6 | Cl [hydrochloric acid] |  | same product concentrations | 
7 | O=S(=O)(O)CCNC(CO)(CO)CO [TES, N-tris(hydroxymethyl)methyl-2-aminoethanesulphonic acid] | best buffer substances |  | standardised product concentration with different NaHCO3 concentrations (CHO [2]): same product concentrations both with and without the use of NaHCO3; also recorded: identical product concentrations; titre concentration compared with the control (CHO [5]; FIG. 5C, control NaHCO3 36 mmol/L): at the same level as those of the control
8 | [Na+].[OH-] [NaOH, sodium hydroxide solution] |  |  | product formation rate by pH regulation agent (CHO [5]; NaOH versus Na2CO3, FIG. 4): better product formation rate

Reference: patent US8822198B2, “Method for optimizing a biopharmaceutical production process” (priority 2009, dated 2014)
